Test results reported in patent US10561653B2 (NOVARTIS AG, priority 2015, dated 2020).

Key:
[1] = test system: resistant human lung tumor explants; experiment: Bioplex assay of interleukins secretion in supernatants of resistant human lung tumor explants; assay type: cell-based
Method: (§1) All experiments were carried out in accordance with guidelines set out by the Animal Experimental Ethics Committee. […] Vehicle consisted of 0.1% Tween 80 and 0.5% sodium carboxymethylcellulose (NaCMC) in water. Mice were euthanized at day 15, lungs harvested and tumor nodules counted under dissecting microscope. […] Freshly resected NSCLC tumors were obtained through the Tissue Core at Moffitt Cancer Center. The tumor was disaggregated for 2 hours in a Collagenase/DNase solution in the presence of complete protease inhibitors (Roche). Total cells (Tu) were counted. […] IL-2 has been used in some experiments in order to stimulate the IFN-γ production in these very resistant tumor cells. […] IFNg (IFN-γ ELISA R&D Systems) was determinated as a measure of T cell reactivity to autologous tumor cells. […] The compounds A and B were tested using similar experimental conditions, with the exception that the freshly resected NSCLC tumors were obtained from the Hospital Clínico in Barcelona. […] FIG. 8 a-g show the results obtained in each case. […] This is considered a clear signal of immune stimulation of the infiltrating lymphocytes presents in the tumors. […] 4. […] A compound of Formula I will be administered orally to the patient twice daily, fasting, at a dose of 80 mg, 160 mg, 320 mg or 640 mg throughout a cycle of 28 days. An anti-PD-1 antibody will be administered at a dose of about 300 mg or about 400 mg once every 3 week or once every 4 weeks. The anti-PD-1 antibody will be administered via IV infusion over a period of 30 minutes to 2 h. The compound of Formula I will be administered fasting immediately prior to the infusion with the anti-PD-1 antibody. In order to determine efficacy, baseline evaluations will be performed as closely as possible to the beginning of treatment and never more than 4 weeks before the beginning of the treatment. In addition to a baseline scan, confirmatory scans will be obtained 4-6 weeks following initial documentation of objective response. Response and progression will be evaluated in this study using the new international criteria proposed by the revised Response Evaluation Criteria in Solid Tumors (RECIST) guideline (version 1.1; Eisenhauer E A, Therasse P, Bogaerts J, et al. New response evaluation criteria in solid tumours: revised RECIST guideline (version 1.1). Eur J Cancer 2009; 45:228-47). Changes in the largest diameter (unidimensional measurement) of the tumor lesions and the shortest diameter in the case of malignant lymph nodes are used (Schwartz L H, Bogaerts J, Ford R, et al. Evaluation of lymph nodes with RECIST 1.1. Eur J Cancer 2009; 45:261-7). All The same method of assessment and the same technique will be used to characterize each identified and reported lesion at baseline and during follow-up. Imaging-based evaluation such as Chest x-ray, conventional CT and MRI will be used.

B16-CD73+ tumor cells = experiment: anti-tumor activity in syngeneic mice injected intravenously with B16-CD73+ tumor cells (lung nodules); assay type: in vivo, C57Bl/6 mice; details: for number of lung nodules: oral, 30 mg/Kg/day, similar conditions, University of Barcelona, FIGS. 1b and 1c
Method: (§2) (mean lung nodules of 9-10 mice/group±standard errors are shown; *: P<0.05 by Student T test).
(§3) FIGS. 1b and 1c show the anti-tumoral activity of orally administered Compound A and Compound B in two syngeneic mouse models of cancer. (mean lung nodules of 9-10 mice/group±standard errors are shown; *: P<0.05 by Student T test).
(§4) All experiments were carried out in accordance with guidelines set out by the Animal Experimental Ethics Committee. […] Vehicle consisted of 0.1% Tween 80 and 0.5% sodium carboxymethylcellulose (NaCMC) in water. Mice were euthanized at day 15, lungs harvested and tumor nodules counted under dissecting microscope. […] Freshly resected NSCLC tumors were obtained through the Tissue Core at Moffitt Cancer Center. The tumor was disaggregated for 2 hours in a Collagenase/DNase solution in the presence of complete protease inhibitors (Roche). Total cells (Tu) were counted. […] IL-2 has been used in some experiments in order to stimulate the IFN-γ production in these very resistant tumor cells. […] IFNg (IFN-γ ELISA R&D Systems) was determinated as a measure of T cell reactivity to autologous tumor cells. […] The compounds A and B were tested using similar experimental conditions, with the exception that the freshly resected NSCLC tumors were obtained from the Hospital Clínico in Barcelona. […] FIG. 8 a-g show the results obtained in each case. […] This is considered a clear signal of immune stimulation of the infiltrating lymphocytes presents in the tumors. […] 4. […] A compound of Formula I will be administered orally to the patient twice daily, fasting, at a dose of 80 mg, 160 mg, 320 mg or 640 mg throughout a cycle of 28 days. […] Response and progression will be evaluated in this study using the new international criteria proposed by the revised Response Evaluation Criteria in Solid Tumors (RECIST) guideline (version 1.1; Eisenhauer E A, Therasse P, Bogaerts J, et al. New response evaluation criteria in solid tumours: revised RECIST guideline (version 1.1). Eur J Cancer 2009; 45:228-47). […]

[2] = test system: freshly resected NSCLC tumors (human lung tumour explants); experiment: ex vivo human lung tumour explants: IFNg secretion (IFN-γ ELISA) as measure of T cell (TIL) reactivity; assay type: cell-based; details: for interferon gamma secretion from lung tumor cells stimulated with IL-2: FIG. 3; for secretion of IFNg of tumor cells: NSCLC tumors from Hospital Clínico in Barcelona
Method: as §1

MCA205 tumor cells = experiment: anti-tumor activity in syngeneic mice injected intravenously with MCA205 tumor cells (lung nodules); assay type: in vivo, C57Bl/6 mice; details: for number of lung nodules: oral, 30 mg/Kg/day, similar conditions, University of Barcelona, FIGS. 1b and 1c
Method: as §2, §3, §4

[3] = toxicity profile in different animal models; assay type: in vivo; details: in comparison with classical chemotherapy and other adenosine receptor antagonists
[4] = compound alone, supernatants from ex vivo experiments, FIG. 8
[5] = compound alone, 1 μM, FIGS. 4-7 (IL-2 stimulated)
[6] = in combination with an anti-PD-L1 or an anti-PD-1 antibody, FIGS. 4-7

Compound: Nc1nc(-n2cccn2)nc(-n2cccn2)c1Br [Compound of formula (I), 5-bromo-2,6-di-(1H-pyrazol-1-yl)pyrimidin-4-amine]
- secretion of IL5 (Interleukin 5) to the medium [1, 4]: significantly increase the secretion
- secretion of IL10 (Interleukin 10) to the medium [1, 4]: significantly increase the secretion
- secretion of IL13 (Interleukin 13) to the medium [1, 4]: significantly increase the secretion
- secretion of IL17 (Interleukin 17) to the medium [1, 4]: significantly increase the secretion
- secretion of ILib (Interleukin 1b) to the medium [1, 4]: significantly increase the secretion
- secretion of MIP1b to the medium [1, 4]: significantly increase the secretion
- secretion of tumor necrosis factor α (TNFα) to the medium [1, 4]: significantly increase the secretion
- secretion of different interleukins ([1]; in combination with either an anti PDL-1 or an anti-PD-1 antibody): increased the secretion of different interleukins of these tumors synergistically
- tumor burden (lung nodule and lung metastasis) (B16-CD73+ tumor cells; 3×10^5 B16-CD73+ cells i.v., 15 mg/kg/day oral gavage daily for 15 days vs vehicle, nodules counted day 15, FIG. 1a): significantly reduced tumor burden
- TIL function (IFNg concentration) ([2]; 1 μM in combination with anti-PD-L1 antibody, other tumors): synergistically capable of restoring TIL function
- TIL function (IFNg concentration) ([2]; 1 μM in combination with anti-PD-L1 antibody, some of the samples): improved TIL function (as determined by measuring IFNg concentration) in additive way
- interferon gamma secretion from lung tumor cells stimulated with IL-2 ([2]; compound alone): significantly increased
- interferon gamma secretion from lung tumor cells stimulated with IL-2 ([2]; in combination with anti-PD-1 antibody, compared with compound alone): more pronounced
- interferon gamma secretion of non-stimulated lung tumor cells ([2]; in combination with anti-PD-L1 antibody, FIG. 2): significantly increase
- TIL function (IFNg concentration) ([2]; single agent, other tumors, compound 1 μM, antibody 10 mg/ml): had no effect on TIL function
- TIL reactivity (IFNg concentration) ([2]; single agent, some of the samples, 200,000 cells/well, 3 days, compound 1 μM, antibody 10 mg/ml): partially restored TIL reactivity
- tumor burden (lung nodule and lung metastasis) (MCA205 tumor cells; 2×10^5 MCA205 cells i.v., 30 mg/kg/day oral gavage daily for 7 days vs vehicle, nodules counted day 15, FIG. 1a): significantly reduced tumor burden
- toxicity profile [3]: low toxicity profile

Compound: Nc1nc(-n2cccn2)nc(-n2cccn2)c1Cl [Compound A, 5-chloro-2,6-di-(1H-pyrazol-1-yl)pyrimidin-4-amine, reference compound]
- number of lung nodules (B16-CD73+ tumor cells): no significant reduction
- secretion of IFNg of tumor cells [2, 5]: not able to increase the secretion of IFNg
- secretion of IFNg of tumor cells [2, 6]: not able to increase the secretion of IFNg
- number of lung nodules (MCA205 tumor cells): no significant reduction

Compound: N#Cc1c(N)nc(-n2cccn2)nc1-n1cccn1 [Compound B, 4-amino-2,6-di-(1H-pyrazol-1-yl)pyrimidine-5-carbonitrile, reference compound]
- number of lung nodules (B16-CD73+ tumor cells): no significant reduction
- secretion of IFNg of tumor cells [2, 5]: not able to increase the secretion of IFNg
- secretion of IFNg of tumor cells [2, 6]: not able to increase the secretion of IFNg
- number of lung nodules (MCA205 tumor cells): no significant reduction
